Activity calls are given as the source filed them. The rule behind the calls is not given here.

Data set [1] deals with MCF7. Nature of the data set: Antiproliferative activity against human MCF7 cells expressing CYP1A1 assessed as cell growth inhibition incubated for 48 hrs by sulforhodamine B assay. Type of data set: functional, cell-based. Particulars: MCF7, 48 h. On the technique in general: Sulforhodamine B stains cellular protein and so reports cell mass.
Another data set relates to HT-29. Nature of the data set: Antiproliferative activity against human HT-29 cells assessed as cell growth inhibition incubated for 48 hrs by sulforhodamine B assay. Particulars: HT-29, 48 h. Type of data set: functional, cell-based.
Another data set has as its system M21. Briefly: Antiproliferative activity against human M21 cells assessed as cell growth inhibition incubated for 48 hrs by sulforhodamine B assay. Type of data set: functional, cell-based. Particulars: M21, 48 h.
Data set [2] can be described thus: Selectivity ratio, ratio of IC50 for antiproliferative activity against human HT-29 cells to IC50 for antiproliferative activity against human MCF7 cells expressing CYP1A1. In kind it is functional.
Data set [3] is described as follows: Selectivity ratio, ratio of IC50 for antiproliferative activity against human M21 cells to IC50 for antiproliferative activity against human MCF7 cells expressing CYP1A1. Type of data set: functional.
A short description of data set [4]: Stability in human liver microsomes assessed as half life incubated for 60 mins by HPLC analysis. In kind it is ADME, Microsome.
The nature of data set [5]: Stability in mouse liver microsomes assessed as half life incubated for 60 mins by HPLC analysis. Type of data set: ADME, Microsome. On the technique in general: Microsomes from liver hold many membrane-bound enzymes, among them those of drug oxidation.
Data set [6] can be described thus: Stability in rat liver microsomes assessed as half life incubated for 60 mins by HPLC analysis. Type of data set: ADME, Microsome.
A short description of data set [7]: Stability in human liver microsomes assessed as intrinsic clearance incubated for 60 mins by HPLC analysis. Particulars: read-out: CLH. Type of data set: ADME, Microsome.
Data set [8] is described as follows: Stability in mouse liver microsomes assessed as intrinsic clearance incubated for 60 mins by HPLC analysis. Type of data set: ADME, Microsome. Particulars: read-out: CLH.
The nature of data set [9]: Stability in rat liver microsomes assessed as intrinsic clearance incubated for 60 mins by HPLC analysis. Type of data set: ADME, Microsome. Particulars: read-out: CLH.
The target in a further data set is T1, Cytochrome P450 1A1 (Homo sapiens, UniProt P04798).
T1 sequence (P04798 whole entry): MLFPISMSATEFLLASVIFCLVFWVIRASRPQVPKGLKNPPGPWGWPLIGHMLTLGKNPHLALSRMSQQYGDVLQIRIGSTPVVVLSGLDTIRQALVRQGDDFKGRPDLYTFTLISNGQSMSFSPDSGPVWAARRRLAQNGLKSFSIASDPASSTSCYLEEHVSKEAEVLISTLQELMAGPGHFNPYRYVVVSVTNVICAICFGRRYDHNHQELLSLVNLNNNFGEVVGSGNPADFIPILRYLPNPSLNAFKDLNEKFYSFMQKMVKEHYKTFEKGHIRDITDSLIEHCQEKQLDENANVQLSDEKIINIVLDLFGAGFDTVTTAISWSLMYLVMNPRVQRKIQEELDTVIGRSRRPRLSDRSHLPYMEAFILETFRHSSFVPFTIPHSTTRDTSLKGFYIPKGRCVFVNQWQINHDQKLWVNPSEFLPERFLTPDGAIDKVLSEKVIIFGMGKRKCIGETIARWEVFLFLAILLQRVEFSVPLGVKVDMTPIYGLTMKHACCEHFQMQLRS
Briefly: Binding affinity to human CYP1A1 assessed as inhibition of conversion of 7-ethoicyresorufin into fluorescent resorufin by measuring inhibition constant preincubated for 5 mins followed by […] addition measured every minute for 15 mins by EROD assay. In kind it is ADME.

The test system of data set [10] is HT-1080. Briefly: Antiproliferative activity against human HT-1080 cells expressing CYP1A1 assessed as cell growth inhibition incubated for 48 hrs by sulforhodamine B assay. Type of data set: functional, cell-based. Particulars: HT-1080, 48 h.
For data set [11], the system named is HT-1080. Nature of the data set: Antiproliferative activity against human HT-1080 cells transfected with empty vector assessed as cell growth inhibition incubated for 48 hrs by sulforhodamine B assay. In kind it is functional, cell-based. Particulars: HT-1080, 48 h.
The subject of data set [12] is HT-1080. Nature of the data set: Antiproliferative activity against human HT-1080 cells assessed as cell growth inhibition incubated for 48 hrs by sulforhodamine B assay. Particulars: HT-1080, 48 h. In kind it is functional, cell-based.
A short description of data set [13]: Selectivity ratio, ratio of IC50 for antiproliferative activity against human HT-1080 cells transfected with empty vector to IC50 for antiproliferative activity against human HT-1080 cells expressing CYP1A1. In kind it is functional.
The nature of data set [14]: Selectivity ratio, ratio of IC50 for antiproliferative activity against human HT-1080 cells to IC50 for antiproliferative activity against human HT-1080 cells expressing CYP1A1. Type of data set: functional.
Data set [15] has as its system MCF7. Briefly: Induction of cell cycle arrest in human MCF7 cells expressing CYP1A1 assessed as accumulation of cells at G2/M phase at 1100 nM incubated for 48 hrs by DAPI staining based flow cytometric analysis (reference value: 16+/-2 %). Type of data set: functional. (A flow cytometer gives signals particle by particle.)
For data set [16], the system named is MCF7. Briefly: Induction of cell cycle arrest in human MCF7 cells expressing CYP1A1 assessed as accumulation of cells at S phase at 1100 nM incubated for 48 hrs by DAPI staining based flow cytometric analysis (reference value: 11+/-1 %). Type of data set: functional.
In data set [17] the test system is MCF7. Briefly: Induction of cell cycle arrest in human MCF7 cells expressing CYP1A1 assessed as accumulation of cells at G0/G1 phase at 1100 nM incubated for 48 hrs by DAPI staining based flow cytometric analysis (reference value: 74+/-2 %). Type of data set: functional.
For data set [18], the target named is T2, Tubulin (Homo sapiens) (UniProt P68371+Q9H4B7+P0DPH7+P68366+Q13509+Q71U36+P04350+Q3ZCM7+P07437+P68363+Q9BQE3+Q6PEY2+Q13885+Q9BVA1+Q9BUF5). Briefly: Disruption of microtubules in human MCF7 cells expressing CYP1A1 assessed as cytoskeleton disruption at 1305 nM measured after 48 hrs by DAPI staining based fluorescence microscopic analysis. In kind it is cell-based.

Data set [19] deals with MCF7. Briefly: Induction of cell cycle arrest in human MCF7 cells expressing CYP1A1 assessed as accumulation of cells at G2/M phase at 690 nM incubated for 48 hrs by DAPI staining based flow cytometric analysis (reference value: 16+/-2 %). In kind it is functional.
In data set [20] the test system is MCF7. Briefly: Induction of cell cycle arrest in human MCF7 cells expressing CYP1A1 assessed as accumulation of cells at S phase at 690 nM incubated for 48 hrs by DAPI staining based flow cytometric analysis (reference value: 11+/-1 %). In kind it is functional.
Data set [21] deals with MCF7. Briefly: Induction of cell cycle arrest in human MCF7 cells expressing CYP1A1 assessed as accumulation of cells at G0/G1 phase at 690 nM incubated for 48 hrs by DAPI staining based flow cytometric analysis (reference value: 74+/-2 %). Type of data set: functional.
In data set [22] the target is T2, Tubulin (Homo sapiens). Nature of the data set: Disruption of microtubules in human MCF7 cells expressing CYP1A1 assessed as cytoskeleton disruption at 970 nM measured after 48 hrs by DAPI staining based fluorescence microscopic analysis. Type of data set: cell-based.

By IC50 is commonly meant the point on the concentration scale where inhibition reaches its midpoint. What is called half-life is how long it takes for the measured level to halve. One may read the Ki as the equilibrium dissociation constant of an inhibitor or competing ligand from its target. Take `CCCCCN1CCN(c2ccc(S(=O)(=O)Oc3cccc(Cl)c3)cc2)C1=O`: the IC50 is 400 nM in the data set with MCF7 [1]; above 12500 nM with HT-29; above 12500 nM with M21; 90 nM in the data set with HT-1080 [10]; above 12500 nM with HT-1080 [11]; 6850 nM in the data set on HT-1080 [12]. Moreover, the “Ratio IC50” value is above 31 in data set [2], above 31 in data set [3], above 139 in data set [13] and 76 in [14]. The half-life was found to be 4.83 h in [4], 2.17 h in [5] and 1.83 h in data set [6]. The values for the microsomal CLint in data set [7], in data set [8] and in data set [9] were 5 µL/min/mg, 11 µL/min/mg and 12 µL/min/mg, respectively. For the same molecule, on Cytochrome P450 1A1, the Ki is 600 nM. In addition, the Activity in the data set with MCF7 [15] was determined as 42%; with MCF7 [16] it was 13%; in the data set with MCF7 [17], 45%. Moreover, at Tubulin (Homo sapiens) [18], the result was Active.
On to `CCCCCN1CCN(c2ccc(S(=O)(=O)Oc3cccc(I)c3)cc2)C1=O`, for which the half-inhibitory concentration (IC50) in the data set with MCF7 [1] is 140 nM; in the data set on HT-29 it was above 12500 nM; in the data set on M21, above 12500 nM; with HT-1080 [10], 30 nM; with HT-1080 [11], above 12500 nM; with HT-1080 [12] it was 4110 nM. The “Ratio IC50” value is reported as above 90 in data set [2], above 90 in data set [3], above 417 in data set [13] and 137 in data set [14]. Besides, the half-life in data set [4] was 1.28 h; in data set [5], 1.55 h; in data set [6], 1.03 h. For the same molecule, the microsomal CLint is 19 µL/min/mg in data set [7], 15 µL/min/mg in [8] and 24 µL/min/mg in [9]. The Ki on Cytochrome P450 1A1 was 190 nM. For the same molecule, the Activity is listed as 45% in the data set with MCF7 [19], 18% with MCF7 [20] and 37% with MCF7 [21]. The outcome on Tubulin (Homo sapiens) [22] was Active.
`O=c1cc(-c2ccccc2)oc2c1ccc1ccccc12` [ALPHA-NAPHTHOFLAVONE]: the Ki on Cytochrome P450 1A1 was found to be 50 nM.
For the molecule `CCCCN1CCN(c2ccc(S(=O)(=O)Oc3cc(Cl)cc(Cl)c3)cc2)C1=O`, the half-life in data set [4] worked out at 1.48 h; in data set [5], 0.257 h; in [6] it was 0.783 h. Moreover, the values for the microsomal CLint in data set [7], in data set [8] and in data set [9] were 16 µL/min/mg, 90 µL/min/mg and 29 µL/min/mg, respectively.
On to `CCCCN1CCN(c2ccc(S(=O)(=O)Oc3cc(OC)cc(OC)c3)cc2)C1=O`, for which the half-life is 1.12 h in data set [4], 0.175 h in [5] and 1.55 h in data set [6]. Besides, the values for the microsomal CLint in [7], in data set [8] and in [9] were 20.7 µL/min/mg, 133 µL/min/mg and 15 µL/min/mg, respectively.

(Values after ChEMBL document CHEMBL5316344, “Homologation of the Alkyl Side Chain of Antimitotic Phenyl 4-(2-Oxo-3-alkylimidazolidin-1-yl)benzenesulfonate Prodrugs Selectively Targeting CYP1A1-Expressing Breast Cancers Improves Their Stability in Rodent Liver Microsomes” (J Med Chem, 2023).)
